Test results as given in patent US20230165831A1, “METHOD AND COMPOSITION FOR RENDERING CANCER CELLS SUSCEPTIBLE TO TREATMENT BY TARGETED ONCOGENETIC DRIVERS” (IMPACT BIOLIFE SCIENCE, INC., priority 2021, published 2023).
Like-named read-outs stand apart in the source and are kept apart here.

Key:
[1] = system: breast cancer line T47D cells; assay: CTG (CellTiter-Glo) cell viability assay, 6×6 combo matrix, 72 h, T47D; settings: Homo sapiens;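 note: luminescence read-out after 72 h at 37 °C under 5% CO2, with medium-only wells as blanks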
Experimental: (§1) 7) Using complete cell medium, adjust the volume of the suspension to achieve a cell concentration.
(§2) Solid compound of cis-platinum was solubilized in PBS to a stock solution of 3.333 mM.
(§3) Final volume is 100 µL per well at this point.
(§4) 1) Incubate the plates at room temperature and away from light for 30 minutes.
(§5) 3) Add 100 µL /well of CellTiter-Glo® Reagent in each well. Avoid light.
(§6) 4) Mix contents for 2 minutes on an orbital shaker.
(§7) 5) Incubate plate at room temperature for 10 minutes to stabilize the luminescent signal.

[2] = system: pancreatic cancer line Capan-1 cells; assay: CTG (CellTiter-Glo) cell viability assay, 6×6 combo matrix, 72 h, Capan-1; format: cell-based; settings: for Relatively Cell inhibition of vehicle control(%): Capan-1
Experimental: To measure the cell inhibition effect of compounds and synergy effect of test articles on ten (10) cell lines using standard CTG assay.
b. A549, T47D, SK-OV-3, MKN45, SK-Hep-1, HT-29, Capan-1, 786-O and LNCaP cell line, for compounds and vehicle groups, the seeding density of cell lines is 3000 cells/80 µL per well. For blank groups, add 100 µL medium. For PBS groups, add 100 µL PBS.
8) Incubate the U87MG, A549, T47D, SK-OV-3, MKN45, SK-Hep-1, HT-29, Capan-1, 786-O and LNCaP cells overnight at 37° C./5% CO2.
5) Incubate the plates at 37° C./5% CO2 for 72 hours.
6) Read plates in Envision.

[3] = system: prostate adenocarcinoma line LNCap cells; assay: CTG (CellTiter-Glo) cell viability assay, 6×6 combo matrix, 72 h, LNCaP; settings: Homo sapiens, LNCaP;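 note: luminescence signal read after adding CellTiter-Glo reagent, with cells exposed to compounds for 72 h at 37 °C under 5% CO2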
[4] = system: Liver cancer line SK-HEP-1 cells; assay: CTG (CellTiter-Glo) cell viability assay, 6×6 combo matrix, 72 h, SK-Hep-1; settings: Homo sapiens;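 note: luminescent signal read after 72 h compound exposure at 37 °C under 5% CO2, with medium-only wells serving as blank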
Experimental: as §1, §2, §3, §4, §5, §6, §7

[5] = system: glioblastoma line U87MG cells; assay: CTG (CellTiter-Glo) cell viability assay, 6×6 combo matrix, 72 h, U87MG; settings: Homo sapiens, U-87 MG;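 note: U87MG cells seeded at 2000 per well, exposed 72 h, viability read by CellTiter-Glo luminescence, inhibition expressed relative to vehicle-treated wells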
Experimental: as §1
U87MG cell lines, for compounds and vehicle groups, the seeding density of cell lines is 2000 cells/80 µL per well. For blank groups, add 100 µL medium. For PBS groups, add 100 µL PBS.
as §2, §3, §4, §5, §6, §7

[6] = Homo sapiens, CAPAN-1, read-out: inhibition rate
[7] = read-out: Relatively Cell inhibition of vehicle control(%), myricetin 0.8 µM only (cisplatin plate)
[8] = read-out: Relatively Cell inhibition of vehicle control(%), myricetin 0.8 µM only (doxorubicin plate)
[9] = read-out: Relatively Cell inhibition of vehicle control(%), myricetin 0.8 µM only (taxol plate)
[10] = read-out: Relatively Cell inhibition of vehicle control(%), myricetin 0.8 µM only (topotecan plate)

## O=c1c(O)c(-c2cc(O)c(O)c(O)c2)oc2cc(O)cc(O)c12 [myricetin]
[1]; read-out: Relatively Cell inhibition of vehicle control(%), T47D, 0.8 µM myricetin only (cisplatin 0)
  inhibition at 0.8 µM: -1.72%
[1]; read-out: Relatively Cell inhibition of vehicle control(%), T47D, 0.8 µM myricetin only (doxorubicin 0)
  inhibition at 0.8 µM: 8.68%
[1]; read-out: Relatively Cell inhibition of vehicle control(%), T47D, 0.8 µM myricetin only (taxol 0)
  inhibition at 0.8 µM: 6.31%
[1]; read-out: Relatively Cell inhibition of vehicle control(%), T47D, 0.8 µM myricetin only (topotecan 0)
  inhibition at 0.8 µM: 1.93%
[1]; read-out: Relatively Cell inhibition of vehicle control(%), T47D, 4 µM myricetin only (cisplatin 0)
  inhibition at 4 µM: -0.88%
[1]; read-out: Relatively Cell inhibition of vehicle control(%), T47D, 4 µM myricetin only (doxorubicin 0)
  inhibition at 4 µM: 1.01%
[1]; read-out: Relatively Cell inhibition of vehicle control(%), T47D, 4 µM myricetin only (taxol 0)
  inhibition at 4 µM: 0.2%
[1]; read-out: Relatively Cell inhibition of vehicle control(%), T47D, 4 µM myricetin only (topotecan 0)
  inhibition at 4 µM: -2.25%
[1]; read-out: Relatively Cell inhibition of vehicle control(%), T47D, 20 µM myricetin only (cisplatin 0)
  inhibition at 20 µM: 2.08%
[1]; read-out: Relatively Cell inhibition of vehicle control(%), T47D, 20 µM myricetin only (doxorubicin 0)
  inhibition at 20 µM: 8.28%
[1]; read-out: Relatively Cell inhibition of vehicle control(%), T47D, 20 µM myricetin only (taxol 0)
  inhibition at 20 µM: 5.67%
[1]; read-out: Relatively Cell inhibition of vehicle control(%), T47D, 20 µM myricetin only (topotecan 0)
  inhibition at 20 µM: 3.54%
[1]; read-out: Relatively Cell inhibition of vehicle control(%), T47D, 100 µM myricetin only (cisplatin 0)
  inhibition at 100 µM: 25.4%
[1]; read-out: Relatively Cell inhibition of vehicle control(%), T47D, 100 µM myricetin only (doxorubicin 0)
  inhibition at 100 µM: 24.5%
[1]; read-out: Relatively Cell inhibition of vehicle control(%), T47D, 100 µM myricetin only (taxol 0)
  inhibition at 100 µM: 30%
[1]; read-out: Relatively Cell inhibition of vehicle control(%), T47D, 100 µM myricetin only (topotecan 0)
  inhibition at 100 µM: 22.2%
[2]; [6]
  inhibition at 4 µM: 6.24%
  inhibition at 100 µM: 23.3%
[2]; Myr 4 pM only (topotecan matrix)
  Relatively Cell inhibition of vehicle control(%): 0.67%
[2]; Myr 20 pM only (doxorubicin matrix)
  Relatively Cell inhibition of vehicle control(%): 11.98%
[2]; Myr 20 pM only (topotecan matrix)
  Relatively Cell inhibition of vehicle control(%): 5.10%
[2]; Myr 100 pM only (doxorubicin matrix)
  Relatively Cell inhibition of vehicle control(%): 30.94%
[2]; Myr 0.8 µM only (cisplatin matrix)
  Relatively Cell inhibition of vehicle control(%): 1.28%
[2]; Myr 0.8 µM only (doxorubicin matrix)
  Relatively Cell inhibition of vehicle control(%): 7.91%
[2]; Myr 0.8 µM only (taxol matrix)
  Relatively Cell inhibition of vehicle control(%): 3.71%
[2]; Myr 0.8 µM only (topotecan matrix)
  Relatively Cell inhibition of vehicle control(%): -6.16%
[2]; Myr 4 µM only (cisplatin matrix)
  Relatively Cell inhibition of vehicle control(%): 6.73%
[2]; Myr 4 µM only (taxol matrix)
  Relatively Cell inhibition of vehicle control(%): 7.41%
[2]; Myr 20 µM only (cisplatin matrix)
  Relatively Cell inhibition of vehicle control(%): 10.48%
[2]; Myr 20 µM only (taxol matrix)
  Relatively Cell inhibition of vehicle control(%): 9.11%
[2]; Myr 100 µM only (cisplatin matrix)
  Relatively Cell inhibition of vehicle control(%): 31.40%
[2]; Myr 100 µM only (taxol matrix)
  Relatively Cell inhibition of vehicle control(%): 30.66%
[3]; [7]
  inhibition at 0.8 µM: -1.65%
[3]; [8]
  inhibition at 0.8 µM: -0.32%
[3]; [9]
  inhibition at 0.8 µM: -2.06%
[3]; [10]
  inhibition at 0.8 µM: -2.79%
[3]; read-out: Relatively Cell inhibition of vehicle control(%), myricetin 4 µM only (cisplatin plate)
  inhibition at 4 µM: 0.26%
[3]; read-out: Relatively Cell inhibition of vehicle control(%), myricetin 4 µM only (doxorubicin plate)
  inhibition at 4 µM: -3.26%
[3]; read-out: Relatively Cell inhibition of vehicle control(%), myricetin 4 µM only (taxol plate)
  inhibition at 4 µM: -5.5%
[3]; read-out: Relatively Cell inhibition of vehicle control(%), myricetin 4 µM only (topotecan plate)
  inhibition at 4 µM: 8.5%
[3]; read-out: Relatively Cell inhibition of vehicle control(%), myricetin 20 µM only (cisplatin plate)
  inhibition at 20 µM: -3.11%
[3]; read-out: Relatively Cell inhibition of vehicle control(%), myricetin 20 µM only (doxorubicin plate)
  inhibition at 20 µM: -2.66%
[3]; read-out: Relatively Cell inhibition of vehicle control(%), myricetin 20 µM only (taxol plate)
  inhibition at 20 µM: 4.8%
[3]; read-out: Relatively Cell inhibition of vehicle control(%), myricetin 20 µM only (topotecan plate)
  inhibition at 20 µM: 6.5%
[3]; read-out: Relatively Cell inhibition of vehicle control(%), myricetin 100 µM only (cisplatin plate)
  inhibition at 100 µM: 27.2%
[3]; read-out: Relatively Cell inhibition of vehicle control(%), myricetin 100 µM only (doxorubicin plate)
  inhibition at 100 µM: 21.1%
[3]; read-out: Relatively Cell inhibition of vehicle control(%), myricetin 100 µM only (taxol plate)
  inhibition at 100 µM: 31.4%
[3]; read-out: Relatively Cell inhibition of vehicle control(%), myricetin 100 µM only (topotecan plate)
  inhibition at 100 µM: 30.1%
[4]; SK-HEP1, read-out: Relatively Cell inhibition of vehicle control, myricetin 0.8 µM only (cisplatin table)
  inhibition at 0.8 µM: -11.5%
[4]; SK-HEP1, read-out: Relatively Cell inhibition of vehicle control, myricetin 0.8 µM only (doxorubicin table)
  inhibition at 0.8 µM: -9.74%
[4]; SK-HEP1, read-out: Relatively Cell inhibition of vehicle control, myricetin 0.8 µM only (taxol table)
  inhibition at 0.8 µM: -6.66%
[4]; SK-HEP1, read-out: Relatively Cell inhibition of vehicle control, myricetin 0.8 µM only (topotecan table)
  inhibition at 0.8 µM: -19.3%
[4]; SK-HEP1, read-out: Relatively Cell inhibition of vehicle control, myricetin 4 µM only (cisplatin table)
  inhibition at 4 µM: 20.2%
[4]; SK-HEP1, read-out: Relatively Cell inhibition of vehicle control, myricetin 4 µM only (doxorubicin table)
  inhibition at 4 µM: 32.3%
[4]; SK-HEP1, read-out: Relatively Cell inhibition of vehicle control, myricetin 4 µM only (taxol table)
  inhibition at 4 µM: 22.8%
[4]; SK-HEP1, read-out: Relatively Cell inhibition of vehicle control, myricetin 4 µM only (topotecan table)
  inhibition at 4 µM: 16.8%
[4]; SK-HEP1, read-out: Relatively Cell inhibition of vehicle control, myricetin 20 µM only (cisplatin table)
  inhibition at 20 µM: 92.4%
[4]; SK-HEP1, read-out: Relatively Cell inhibition of vehicle control, myricetin 20 µM only (doxorubicin table)
  inhibition at 20 µM: 93.5%
[4]; SK-HEP1, read-out: Relatively Cell inhibition of vehicle control, myricetin 20 µM only (taxol table)
  inhibition at 20 µM: 92.8%
[4]; SK-HEP1, read-out: Relatively Cell inhibition of vehicle control, myricetin 20 µM only (topotecan table)
  inhibition at 20 µM: 93.2%
[4]; SK-HEP1, read-out: Relatively Cell inhibition of vehicle control, myricetin 100 µM only (cisplatin table)
  inhibition at 100 µM: 99.6%
[4]; SK-HEP1, read-out: Relatively Cell inhibition of vehicle control, myricetin 100 µM only (doxorubicin table)
  inhibition at 100 µM: 99.4%
[4]; SK-HEP1, read-out: Relatively Cell inhibition of vehicle control, myricetin 100 µM only (taxol table)
  inhibition at 100 µM: 99.6%
[4]; SK-HEP1, read-out: Relatively Cell inhibition of vehicle control, myricetin 100 µM only (topotecan table)
  inhibition at 100 µM: 99.4%
[5]; [7]
  inhibition at 0.8 µM: 1.25%
[5]; [8]
  inhibition at 0.8 µM: -1.19%
[5]; [9]
  inhibition at 0.8 µM: 2.29%
[5]; [10]
  inhibition at 0.8 µM: 3.94%
